Values of other authors, collected in US20150174235A1, “VACCINE” (Bionor Immuno AS, priority 2012, published 2015).

Test system: HIV-specific T-cells
Settings: for IL-2 production by CD8 T-cells / lytic capacity of polyfunctional HIV specific CD8+ T cells / number of polyfunctional CD4+ T-cells / proliferation of CD4+ T cells / Gag antigen epitopes recognized: IMiD present during in vitro T-cell stimulation; for Gag antigen epitopes recognized: also at lower antigen peptide concentrations; for IFN-γ production by CD8+ T-cells and CD4 T-cells: after antigen stimulation, IMiD present

| SMILES | IL-2 production by CD8 T-cells | lytic capacity of polyfunctional HIV specific CD8+ T cells | number of polyfunctional CD4+ T-cells | proliferation of CD4+ T cells | Gag antigen epitopes recognized | IFN-γ production by CD8+ T-cells and CD4 T-cells |
| --- | --- | --- | --- | --- | --- | --- |
| Nc1cccc2c1CN(C1CCC(=O)NC1=O)C2=O (stereo not drawn) [Lenalidomide] | increased | enhanced | increased | reduced | more | detectable |
| Nc1cccc2c1C(=O)N(C1CCC(=O)NC1=O)C2=O (stereo not drawn) [pomalidomide] | increased | enhanced | increased | reduced | more | detectable |
